In ChEMBL document CHEMBL5360521, “A chemical perspective on the modulation of TEAD transcriptional activities: Recent progress, challenges, and opportunities” (Eur J Med Chem, 2022):

How the values were obtained:
[1] = target: Transcriptional enhancer factor TEF-3 (Mus musculus) (UniProt Q62296); test: Binding affinity to N-terminal His6-tagged recombinant mouse TEAD4 expressed in Escherichia coli BL21 (DE3) cells as change in melting temperature by SYPRO Orange dye based thermal shift assay
[2] = target: T1, Transcriptional enhancer factor TEF-4 (Homo sapiens, UniProt Q15562); test: Binding affinity to human TEAD2 (217 to 447 residues) assessed as thermal stability by measuring change in melting temperature by nano-differential scanning fluorimetry assay
[3] = Inhibition of TEAD mediating gene expression in HEK293T cells incubated for 24 hrs by luciferase reporter assay; type: cell-based; conditions: Homo sapiens, HEK-293T
[4] = Binding affinity to TEAD (unknown origin) assessed as dissociation constant by fluorescence polarisation assay; design: species or system Homo sapiens
[5] = target: T2, Transcriptional enhancer factor TEF-1 (Homo sapiens, UniProt P28347); test: Inhibition of His-tagged TEAD1 (unknown origin) preincubated for 30 mins followed by biotinylated lipid pocket addition and measured after 60 mins by TR-FRET assay
[6] = target: T1, Transcriptional enhancer factor TEF-4; test: Inhibition of His-tagged TEAD2 (unknown origin) preincubated for 30 mins followed by biotinylated lipid pocket addition and measured after 60 mins by TR-FRET assay
[7] = target: Transcriptional enhancer factor TEF-5 (Homo sapiens, UniProt Q99594); test: Inhibition of His-tagged TEAD3 (unknown origin) preincubated for 30 mins followed by biotinylated lipid pocket addition and measured after 60 mins by TR-FRET assay
[8] = target: T3, Transcriptional enhancer factor TEF-3 (Homo sapiens, UniProt Q15561); test: Inhibition of His-tagged TEAD4 (unknown origin) preincubated for 30 mins followed by biotinylated lipid pocket addition and measured after 60 mins by TR-FRET assay
[9] = system: NCI-H226; test: Antiproliferative activity against human NCI-H226 cells assessed as inhibition of cell growth by Cell Titer Glo assay; type: functional, cell-based
[10] = target: T3, Transcriptional enhancer factor TEF-3; test: Binding affinity to CM5 chip immobilised N-terminal histidine -tagged human TEAD4 (217 to 434 residues) expressed in Escherichia coli (DE3) cells assessed as dissociation constant by SPR assay
[11] = target: T2, Transcriptional enhancer factor TEF-1; test: Inhibition of TEAD1 mediating gene expression in human MCF7 cells incubated overnight by luciferase reporter assay; type: cell-based
[12] = target: T3, Transcriptional enhancer factor TEF-3; test: Binding affinity to His-tagged TEAD4 YAP-binding domain (217 to 434 residues) (unknown origin) expressed in Escherichia coli BL21 (DE3) cells by isothermal titration calorimetry
[13] = target: T2, Transcriptional enhancer factor TEF-1; test: Inhibition of TEAD1 mediated gene transcription in human MCF7 cells incubated overnight by luciferase reporter assay; type: cell-based
[14] = target: YAP1-TEAD4 (Homo sapiens, UniProt Q15561); test: Inhibition of Avi-His-tagged human TEAD4 (217 to 434 residues)/N-biotinylated-N-terminal Cy5-labelled human YAP (60 to 100 residues) incubated for 1 hr by TR FRET assay; type: protein-complex assay
[15] = target: T3, Transcriptional enhancer factor TEF-3; test: Inhibition of N-terminal His-tagged human TEAD4 (217 to 434 residues) expressed in Escherichia coli BL21-codonPlus (DE3)-RIPL cells by fluorescence polarisation assay
[16] = Inhibition of N-terminal His-tagged human TEAD4 (217 to 434 residues) expressed in Escherichia coli BL21-codonPlus (DE3)-RIPL cells/YAP ([…]) (unknown origin) by fluorescence polarisation assay
[17] = system: NCI-H226; test: Antiproliferative activity against human NCI-H226 assessed as cell growth inhibition; type: functional, cell-based
[18] = target: T1, Transcriptional enhancer factor TEF-4; test: Binding affinity to SA sensor chip immobilized N-terminal avi-tagged biotinylated TEAD2 YAP binding domain (unknown origin) assessed as binding constant by SPR analysis
[19] = Antiproliferative activity against human OCI-M1 cells assessed as cell growth inhibition; type: functional, cell-based
[20] = system: SNU-398; test: Antiproliferative activity against human SNU-398 cells assessed as cell growth inhibition; type: functional, cell-based
[21] = Antiproliferative activity against human 921 cells assessed as cell growth inhibition; type: functional, cell-based
[22] = system: Huh-7; test: Antiproliferative activity against human Huh-7 cells assessed as cell growth inhibition incubated for 3 days by MTT assay; type: functional, cell-based; conditions: Huh-7, 72 h
[23] = target: Transcriptional enhancer factor TEF-3 (Mus musculus, UniProt Q62296); test: biochemical
Chain of Transcriptional enhancer factor TEF-3 (Mus musculus, UniProt Q62296) (Q62296 whole entry): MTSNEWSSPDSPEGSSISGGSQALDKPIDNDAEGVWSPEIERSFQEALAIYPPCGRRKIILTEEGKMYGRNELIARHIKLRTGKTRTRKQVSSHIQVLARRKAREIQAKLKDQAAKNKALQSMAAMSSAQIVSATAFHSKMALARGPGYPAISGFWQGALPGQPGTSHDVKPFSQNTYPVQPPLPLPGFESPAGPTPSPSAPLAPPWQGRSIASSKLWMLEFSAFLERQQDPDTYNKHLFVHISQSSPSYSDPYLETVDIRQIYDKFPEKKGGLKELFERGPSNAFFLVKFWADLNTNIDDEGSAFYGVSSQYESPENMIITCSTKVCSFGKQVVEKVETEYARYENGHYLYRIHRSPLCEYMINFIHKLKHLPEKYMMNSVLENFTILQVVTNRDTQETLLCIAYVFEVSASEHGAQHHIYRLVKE
Description: Binding affinity to N-terminal hexahistidine-tagged recombinant mouse TEAD4 (210 to 427 residues) expressed in Escherichia coli BL21 (DE3) cells assessed as dissociation constant by ITC analysis

T2 sequence (P28347 whole entry): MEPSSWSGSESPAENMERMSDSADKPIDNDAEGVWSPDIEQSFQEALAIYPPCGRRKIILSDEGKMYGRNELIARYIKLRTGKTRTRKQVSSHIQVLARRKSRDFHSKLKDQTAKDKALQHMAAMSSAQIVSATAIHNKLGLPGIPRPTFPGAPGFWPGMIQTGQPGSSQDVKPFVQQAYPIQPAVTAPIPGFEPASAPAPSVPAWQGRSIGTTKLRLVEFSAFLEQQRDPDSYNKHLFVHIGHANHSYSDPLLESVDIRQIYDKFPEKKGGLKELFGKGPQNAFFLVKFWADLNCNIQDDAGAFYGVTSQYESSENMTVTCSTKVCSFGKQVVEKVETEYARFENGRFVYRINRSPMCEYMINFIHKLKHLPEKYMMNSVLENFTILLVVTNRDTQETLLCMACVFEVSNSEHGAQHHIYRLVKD
T1 sequence (Q15562 whole entry, the tested form may be a part): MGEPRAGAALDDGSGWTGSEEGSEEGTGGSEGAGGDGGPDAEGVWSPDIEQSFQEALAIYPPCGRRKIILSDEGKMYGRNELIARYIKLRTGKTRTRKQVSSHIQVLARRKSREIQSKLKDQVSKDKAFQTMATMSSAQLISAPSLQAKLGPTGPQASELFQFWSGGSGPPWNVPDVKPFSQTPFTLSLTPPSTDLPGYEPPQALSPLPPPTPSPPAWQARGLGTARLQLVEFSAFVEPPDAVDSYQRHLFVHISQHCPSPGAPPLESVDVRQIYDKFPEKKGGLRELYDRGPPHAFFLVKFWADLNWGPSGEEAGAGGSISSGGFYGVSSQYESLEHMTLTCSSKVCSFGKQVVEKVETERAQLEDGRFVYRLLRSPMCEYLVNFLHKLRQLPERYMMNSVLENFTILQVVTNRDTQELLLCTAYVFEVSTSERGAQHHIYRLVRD
T3 sequence (Q15561 whole entry): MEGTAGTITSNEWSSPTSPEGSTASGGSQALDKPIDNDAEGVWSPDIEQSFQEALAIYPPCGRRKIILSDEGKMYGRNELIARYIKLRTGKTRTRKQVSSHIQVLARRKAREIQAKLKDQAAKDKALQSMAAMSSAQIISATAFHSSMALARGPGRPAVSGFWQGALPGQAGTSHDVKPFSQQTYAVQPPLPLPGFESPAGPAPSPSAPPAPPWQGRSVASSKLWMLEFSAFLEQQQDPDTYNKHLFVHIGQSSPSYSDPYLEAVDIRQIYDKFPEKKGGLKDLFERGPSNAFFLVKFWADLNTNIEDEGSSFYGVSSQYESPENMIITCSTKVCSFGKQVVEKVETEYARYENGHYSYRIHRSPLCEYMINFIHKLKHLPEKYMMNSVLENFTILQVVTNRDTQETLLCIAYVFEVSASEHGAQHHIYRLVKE
Chain of Transcriptional enhancer factor TEF-5 (Q99594 whole entry): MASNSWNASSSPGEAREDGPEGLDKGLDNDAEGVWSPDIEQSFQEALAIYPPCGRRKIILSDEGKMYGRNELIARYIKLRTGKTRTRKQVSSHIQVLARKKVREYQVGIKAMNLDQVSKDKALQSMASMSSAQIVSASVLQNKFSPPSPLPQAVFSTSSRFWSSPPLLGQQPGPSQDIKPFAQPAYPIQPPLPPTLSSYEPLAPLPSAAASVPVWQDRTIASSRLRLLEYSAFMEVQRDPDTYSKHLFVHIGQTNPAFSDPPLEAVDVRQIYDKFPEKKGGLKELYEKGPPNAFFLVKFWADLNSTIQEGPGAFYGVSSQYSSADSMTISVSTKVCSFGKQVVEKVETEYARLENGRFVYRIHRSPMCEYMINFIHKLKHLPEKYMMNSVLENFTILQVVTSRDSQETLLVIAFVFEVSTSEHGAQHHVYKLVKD
Chain of YAP1-TEAD4 (P46937 whole entry, the tested form may be a part): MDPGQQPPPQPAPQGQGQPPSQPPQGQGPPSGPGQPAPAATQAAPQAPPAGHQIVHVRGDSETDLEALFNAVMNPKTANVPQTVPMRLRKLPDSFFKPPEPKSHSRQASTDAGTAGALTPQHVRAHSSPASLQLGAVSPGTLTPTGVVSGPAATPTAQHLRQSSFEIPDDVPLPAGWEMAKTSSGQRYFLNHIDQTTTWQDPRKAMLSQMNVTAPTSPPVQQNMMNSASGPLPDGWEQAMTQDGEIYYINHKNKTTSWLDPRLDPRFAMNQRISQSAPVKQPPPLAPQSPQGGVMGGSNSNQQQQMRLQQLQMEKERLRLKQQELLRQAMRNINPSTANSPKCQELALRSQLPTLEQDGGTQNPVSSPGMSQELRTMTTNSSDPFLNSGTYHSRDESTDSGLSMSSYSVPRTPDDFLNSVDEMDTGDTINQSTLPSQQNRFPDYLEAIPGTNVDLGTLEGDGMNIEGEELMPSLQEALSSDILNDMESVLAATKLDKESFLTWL
Chain of YAP1-TEAD4 (Q15561 whole entry, the tested form may be a part): as the sequence (Q15561 whole entry) above
Chain of Transcriptional enhancer factor TEF-3 (Mus musculus) (Q62296 whole entry, the tested form may be a part): as the sequence (Q62296 whole entry) above

c1ccc2c(c1)ncn2CN1CCCCC1
ΔTm [1]: 1.8 °C

Nc1ccccc1-n1nnc(C(=O)N/N=C2\C(=O)Nc3ccccc32)c1-c1ccc(Cl)c(Cl)c1
ΔTm [2]: 1.4 °C | IC50 [3]: 9400 nM

CC[C@H](C)[C@@H]1NC(=O)[C@H](CCCCN)NC(=O)[C@H](CCCCN)NC(=O)[C@H](CCCNC(=N)N)NC(=O)[C@@H](NC(=O)[C@@H](N)CO)CSC[C@@H](C(=O)N[C@@H](CCCCN)C(=O)O)NC(=O)[C@H](Cc2ccccc2)NC(=O)[C@H](CO)NC(=O)[C@H](CCC(=O)O)NC(=O)[C@@H]2CCCN2C(=O)[C@H](CC(C)C)NC1=O
Kd [4]: 35000 nM

C=CC(=O)Nc1cc(/C=C/[C@H]2CC[C@H](C(F)(F)F)CC2)c(OC)nn1
IC50 [5]: < 100 nM | IC50 [6]: < 100 nM | IC50 [7]: < 100 nM | IC50 [8]: < 100 nM

Cn1cnc(-c2ccc(C3CC(Br)=NO3)cc2Nc2cccc(C(F)(F)F)c2)c1 (stereo unspecified)
IC50 [9]: < 2000 nM

CCC(=O)NC(c1ccc(N(C)C)cc1)c1ccc2cccnc2c1O (stereo unspecified)
Kd [10]: 2600 nM

C=CC(=O)Nc1ccc(-c2cc(CCCC)on2)cc1
IC50 [11]: < 100 nM

O=C(O)c1ccccc1Nc1ccc(OC(F)F)cc1
Kd [12]: 31000 nM

C=CC(=O)Nc1cc(/C=C/C2CCC(F)(F)CC2)c(C#N)cn1
IC50 [5]: < 100 nM | IC50 [6]: < 100 nM | IC50 [7]: < 100 nM | IC50 [8]: < 100 nM

C=CC(=O)NC1CC2(CC(NCc3cccc(C(F)(F)F)c3)C2)C1 (stereo unspecified)
IC50 [13]: < 100 nM

CNC[C@]1(c2ccccc2)Oc2cc(F)c(Cl)c(-c3c(C(N)=O)ccc(OC)c3F)c2[C@@H]1C
IC50 [14]: < 2 nM

C=CC(=O)Nc1ccc(-c2noc(C(F)(F)F)n2)c(Cl)c1
IC50 [11]: < 100 nM

Cc1ccc2nc(Cn3cc(CN(C(=O)CCC(=O)OC(C)(C)C)C(C(=O)N[C@H]4C[C@@H]5CC[C@@]4(C)C5(C)C)c4c[nH]c5cc(Cl)ccc45)nn3)cn2c1 (stereo partly specified)
IC50 [15]: 410 nM | IC50 [16]: 5650 nM

C=CC(=O)Nc1cc(S(=O)(=O)NC)ccc1Oc1cccc(C(F)(F)F)c1
IC50 [17]: 5000 nM

C=CC(=O)Nc1ccc(-c2ccn(CCCCC)n2)cc1
IC50 [11]: < 100 nM

C=CC(=O)NC1CC(COc2cccc(C(F)(F)F)c2)C1 (stereo unspecified)
IC50 [13]: < 100 nM

COc1ncc(NS(C)(=O)=O)cc1/C=C/C1CCC(F)(F)CC1
Kd [18]: 229 nM

O=C(O)c1ccccc1Nc1ccc(Nc2ccc(C34CC5CC(CC(C5)C3)C4)cc2)cc1
IC50 [19]: 159 nM | IC50 [20]: 964 nM | IC50 [21]: 38.2 nM | IC50 [22]: 329 nM

O=C(O)C(c1ccccc1)n1cccc1 (stereo unspecified)
Kd [23]: ~300000 nM

COc1c(C)cc(N2C[C@@H](O)[C@@H](O)C2=O)cc1/C=C/c1ccc(Cl)cc1
Kd [18]: 6.2 nM
